Assay results published in publication PMC6738068 (British Journal of Cancer, 2019).
Several values for one entry are separate records, joined by “and”; a condition that tells them apart may be missing. Identical values can stand only once. Entries after “also recorded” stand apart in the source; their conditions may differ. Like-named read-outs stand apart in the source and are kept apart here.

How the values were obtained:
[1] = tested on: advanced solid tumours; assay: Phase 1 efficacy assessment (RECIST v1.1); format: in vivo, human
Description: Diagnostic imaging response assessments (computed tomography or magnetic resonance imaging) were performed at baseline and at the end of every two cycles or as clinically indicated. All patients who had at least one post-baseline radiographic assessment of target, non-target, and new lesions constituted the efficacy-evaluable population. Patients were evaluated for complete response (CR), partial response (PR), stable disease (SD) ≥6 months, or progressive disease as determined by RECIST v1.1.[17] Objective response rate (ORR = CR + PR) and clinical benefit rate (CBR = CR + PR + SD ≥ 6 months) were evaluated. Data cut-off for the efficacy-evaluable population was January 21, 2019.

[2] = tested on: patients with advanced solid tumours
Description: A standard 3+3 dose-escalation scheme was used to identify the maximally tolerated dose (MTD) and RP2D.
Patients without evidence of high-grade neutropenia during this run-in period resumed daily dosing in standard 28-day cycles.
Select haematologic DLT included febrile neutropenia grade ≥3 and/or neutropenia grade ≥3 associated with infection or asymptomatic neutropenia grade ≥3 that persisted for >7 days. Use of haematopoietic growth factors (e.g. G-CSF, erythropoietin) in Cycle 1 was not permitted unless a DLT occurred.
The RP2D was based on the MTD established during dose escalation together with a comprehensive review of toxicities, PKs, and efficacy outcomes.
Dose escalations occurred in 100% increments for individual dosing cohorts up to 32 mg/day. Subsequent dose escalations continued in increments not exceeding 50%, depending on toxicities experienced, and with the approval of local Investigators and the external Medical Monitor.
Hematologic DLTs were defined as drug-related anemia grade ≥3; febrile neutropenia grade ≥3, and/or neutropenia grade ≥3 associated with infection; asymptomatic neutropenia grade ≥3 that persisted for >7 days; asymptomatic thrombocytopenia grade ≥3 that persisted for >7 days following treatment interruption; grade 3 thrombocytopenia associated with bleeding; or grade 4 thrombocytopenia.
Dose escalation decisions were made following the completion of Cycle 1 for all patients enrolled in a given dose level, taking into consideration adverse events (AE) and pharmacokinetic results.

[3] = tested on: PLK2; design: method as in printed; details: preclinical, ref not given; cited from earlier work
[4] = tested on: TrkA; design: method as in printed; details: preclinical, ref not given; cited from earlier work
[5] = tested on: patient-derived xenograft (PDX) models across multiple tumour types; details: preclinical, including PDX models; cited from earlier work
[6] = tested on: OCT2; design: method as in printed; details: preclinical testing, ref not given; cited from earlier work
[7] = tested on: BSEP; design: method as in printed; details: preclinical testing, ref not given; cited from earlier work
[8] = tested on: PLK1; design: method as in printed; details: preclinical, ref not given; cited from earlier work
[9] = tested on: P-glycoprotein; design: method as in printed; details: preclinical testing, ref not given; cited from earlier work
[10] = tested on: Ros; design: method as in printed; details: preclinical, ref not given; cited from earlier work
[11] = tested on: FGFR1; design: method as in printed; details: preclinical, ref not given; cited from earlier work
[12] = tested on: CYP1A2; design: method as in printed; details: preclinical testing, ref not given; cited from earlier work
[13] = tested on: TrkB; design: method as in printed; details: preclinical, ref not given; cited from earlier work
[14] = tested on: Tie2; design: method as in printed; details: preclinical, ref not given; cited from earlier work
[15] = efficacy-evaluable population (n = 49)
[16] = patient with AKT1 E17K mutant endometrioid endometrial carcinoma
[17] = patient with MSS endometrial carcinoma
[18] = oral daily 72 mg (n = 6; one patient removed, not DLT evaluable)

COc1ccc2c(c1)[C@]1(C[C@H]1c1ccc3c(/C=C/c4ccc(CN5C[C@@H](C)O[C@@H](C)C5)cc4)n[nH]c3c1)C(=O)N2 [CFI-400945]
Progressive disease as best response ([1]; 35/49 patients): 71% | patients with SD ≥6 months ([1]; RECIST v1.1): two and 2/13 | partial responses (PR) ([1]; adenoid cystic carcinoma, 48 mg): One PR | ORR ([1]; efficacy-evaluable cohort, 1/49): 2% | CBR ([1]; efficacy-evaluable cohort, 3/49): 6% | complete responses (CR) [1, 15]: No CRs | duration on study, range [1, 15]: 0.1–40.7 months | median duration on study [1, 15]: 1.9 months | median progression-free survival [1, 15]: 3.2 months | patients with SD as best response [1, 15]: 13 patients | progression-free survival, 95% confidence interval [1, 15]: 1.6–4.9 months | lowest dose with evidence of antitumour activity ([1]; in vivo): 48 mg | target lesion reduction [1, 16]: −19% | time on study with SD [1, 16]: 6 cycles | time on study ([1]; patient with KRAS-mutant, MSS colorectal cancer, 48 mg): 12 cycles | duration of SD [1, 17]: 8 cycles | reduction in target lesions [1, 17]: 3.7% | duration of PR / time on trial, ongoing at data cut-off ([1]; patient with adenoid cystic carcinoma, 48 mg): 45 cycles | DLT events ([2]; 64 mg dose escalation, 6 patients): no DLT events | patients with a DLT event ([2]; 64 mg dose level, escalation plus expansion): 1/15 | DLT event in dose expansion ([2]; 64 mg expansion, Cycle 1 Day 15): One patient experienced grade 4 febrile neutropenia | tolerability ([2]; 64 mg, continuous daily dosing): well tolerated; also recorded: tolerable | DLT events ([2]; 72 mg (7 total), Cycle 1): Two patients experienced DLT events | tolerability ([2]; 96 mg daily): intolerable | DLT events ([2]; 96 mg, Cycle 1): one DLT (grade 3 febrile neutropenia) | Total number of patients with DLT, all dosages ([2]; 3-96 mg (n = 48)): 4 | DLT description, grade 3 ([2]; all dose levels (n = 48)): Neutropenia, febrile neutropenia | DLT description, grade 4 ([2]; all dose levels (n = 48)): Febrile neutropenia, lipase elevated | recommended phase 2 dose (RP2D) ([2]; continuous daily oral dosing): 64 mg | principal DLT ([2]; continuous dosing schedule): Neutropenia | Total number of patients with DLT at each dosage ([2]; oral daily 3 mg (n = 3)): 0 | patients with DLT, grade 1 ([2]; oral daily 3 mg (n = 3)): 0 | patients with DLT, grade 2 ([2]; oral daily 3 mg (n = 3)): 0 | patients with DLT, grade 3, number (%) ([2]; oral daily 3 mg (n = 3)): 0 | patients with DLT, grade 4, number (%) ([2]; oral daily 3 mg (n = 3)): 0 | patients with DLT, grade 5 ([2]; oral daily 3 mg (n = 3)): 0 | Total number of patients with DLT at each dosage ([2]; oral daily 6 mg (n = 3)): 0 | patients with DLT, grade 1 ([2]; oral daily 6 mg (n = 3)): 0 | patients with DLT, grade 2 ([2]; oral daily 6 mg (n = 3)): 0 | patients with DLT, grade 3, number (%) ([2]; oral daily 6 mg (n = 3)): 0 | patients with DLT, grade 4, number (%) ([2]; oral daily 6 mg (n = 3)): 0 | patients with DLT, grade 5 ([2]; oral daily 6 mg (n = 3)): 0 | Total number of patients with DLT at each dosage ([2]; oral daily 11 mg (n = 3)): 0 | patients with DLT, grade 1 ([2]; oral daily 11 mg (n = 3)): 0 | patients with DLT, grade 2 ([2]; oral daily 11 mg (n = 3)): 0 | patients with DLT, grade 3, number (%) ([2]; oral daily 11 mg (n = 3)): 0 | patients with DLT, grade 4, number (%) ([2]; oral daily 11 mg (n = 3)): 0 | patients with DLT, grade 5 ([2]; oral daily 11 mg (n = 3)): 0 | Total number of patients with DLT at each dosage ([2]; oral daily 16 mg (n = 3)): 0 | patients with DLT, grade 1 ([2]; oral daily 16 mg (n = 3)): 0 | patients with DLT, grade 2 ([2]; oral daily 16 mg (n = 3)): 0 | patients with DLT, grade 3, number (%) ([2]; oral daily 16 mg (n = 3)): 0 | patients with DLT, grade 4, number (%) ([2]; oral daily 16 mg (n = 3)): 0 | patients with DLT, grade 5 ([2]; oral daily 16 mg (n = 3)): 0 | Total number of patients with DLT at each dosage ([2]; oral daily 24 mg (n = 3)): 0 | patients with DLT, grade 1 ([2]; oral daily 24 mg (n = 3)): 0 | patients with DLT, grade 2 ([2]; oral daily 24 mg (n = 3)): 0 | patients with DLT, grade 3, number (%) ([2]; oral daily 24 mg (n = 3)): 0 | patients with DLT, grade 4, number (%) ([2]; oral daily 24 mg (n = 3)): 0 | patients with DLT, grade 5 ([2]; oral daily 24 mg (n = 3)): 0 | Total number of patients with DLT at each dosage ([2]; oral daily 32 mg (n = 3)): 0 | patients with DLT, grade 1 ([2]; oral daily 32 mg (n = 3)): 0 | patients with DLT, grade 2 ([2]; oral daily 32 mg (n = 3)): 0 | patients with DLT, grade 3, number (%) ([2]; oral daily 32 mg (n = 3)): 0 | patients with DLT, grade 4, number (%) ([2]; oral daily 32 mg (n = 3)): 0 | patients with DLT, grade 5 ([2]; oral daily 32 mg (n = 3)): 0 | Total number of patients with DLT at each dosage ([2]; oral daily 48 mg (n = 3)): 0 | patients with DLT, grade 1 ([2]; oral daily 48 mg (n = 3)): 0 | patients with DLT, grade 2 ([2]; oral daily 48 mg (n = 3)): 0 | patients with DLT, grade 3, number (%) ([2]; oral daily 48 mg (n = 3)): 0 | patients with DLT, grade 4, number (%) ([2]; oral daily 48 mg (n = 3)): 0 | patients with DLT, grade 5 ([2]; oral daily 48 mg (n = 3)): 0 | Total number of patients with DLT at each dosage ([2]; oral daily 64 mg (n = 15)): 1 | patients with DLT, grade 1 ([2]; oral daily 64 mg (n = 15)): 0 | patients with DLT, grade 2 ([2]; oral daily 64 mg (n = 15)): 0 | patients with DLT, grade 3, number (%) ([2]; oral daily 64 mg (n = 15)): 0 | patients with DLT, grade 4, number (%) ([2]; oral daily 64 mg (n = 15)): 1 (6.7) | patients with DLT, grade 5 ([2]; oral daily 64 mg (n = 15)): 0 | Total number of patients with DLT at each dosage [2, 18]: 2 | patients with DLT, grade 1 [2, 18]: 0 | patients with DLT, grade 2 [2, 18]: 0 | patients with DLT, grade 3, number (%) [2, 18]: 1 (16.7) | patients with DLT, grade 4, number (%) [2, 18]: 1 (16.7) | patients with DLT, grade 5 [2, 18]: 0 | Total number of patients with DLT at each dosage ([2]; oral daily 96 mg (n = 6)): 1 | patients with DLT, grade 1 ([2]; oral daily 96 mg (n = 6)): 0 | patients with DLT, grade 2 ([2]; oral daily 96 mg (n = 6)): 0 | patients with DLT, grade 3, number (%) ([2]; oral daily 96 mg (n = 6)): 1 (16.7) | patients with DLT, grade 4, number (%) ([2]; oral daily 96 mg (n = 6)): 0 | patients with DLT, grade 5 ([2]; oral daily 96 mg (n = 6)): 0 | IC50 [3]: > 50000 nM | IC50 [4]: < 100 nM | in vivo antitumour activity [5]: robust in vivo antitumour activity | inhibition of OCT2 [6]: inhibitor | inhibition of BSEP [7]: inhibitor | IC50 [8]: > 50000 nM | inhibition of P-glycoprotein [9]: inhibitor | IC50 [10]: < 100 nM | IC50 [11]: < 100 nM | time-dependent inhibition of CYP1A2 [12]: time-dependent inhibitor | IC50 [13]: < 100 nM | IC50 [14]: < 100 nM
